This note sets out measurements from patent USRE38132E1, “Phenylpyrrolidines, phenylimidazolidines,3-phenyl-1,3-oxizolidines and 3-phenyl-1,3-thiazolidines and their use in the treatment of inflammatory disease” (Boehringer Ingelheim Pharmaceuticals, Inc., priority 1997, dated 2003).

Assay [1] deals with cell bound form of LFA-1 (CD18, CD11a) with ICAM-1, SKW3 cells. The experiment in a line: Inhibition of SKW3 cell binding to ICAM-1 (PMA-stimulated). Type of assay: cell-based, human. As to conditions: Homo sapiens, SKW3, values marked c: no inhibition observed up to highest dose; read-out: Assay to Detect SKW3 Cells Binding to ICAM IC50. Put shortly: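 Compound-treated, PMA-stimulated human T-cell line SKW3 (50 μg/mL PMA final) allowed to adhere for 2 h at 37° C to wells coated with sICAM-1 at 40 μg/mL or fibronectin at 100 μg/mL. After gentle RPMI wash, 50% inhibition concentration or range reported in μM.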

The test system of assay [2] is LFA-1 dependent aggregation of JY cells. The experiment in a line: JY cell homotypic aggregation assay (PMA-stimulated). It counts as cell-based, human. Particulars: Homo sapiens. The procedure, abridged:
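Homotypic aggregation of EBV-transformed JY cells, stimulated by phorbol myristate acetate ([…]), scored visually over time in compound presence at 2·10^5 cells/well in serum-supplemented RPMI 1640. Result given as μM concentration or range inhibiting binding by 50%.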

Assay [3] deals with allogeneic cell transplant response, popliteal lymph node. The experiment in a line: In vivo allogeneic cell transplant model (popliteal lymph node weight). As to conditions: Mus musculus, po; mice, per os, dose at which 50% inhibition is observed; read-out: Allogeneic Cell Transplantation Assay ACT ED50. From the text:
In vivo: Allogeneic Cell Transplant Model Purpose of Assay: The ability of cells to recognize other cells from self or from another genetically different individual (non-self) is an important property in maintaining the integrity of tissue and organ structure. The allogeneic cell transplant response is an important model for studies of transplant rejection and immunocompetence. This T-cell-mediated immune response can be induced in adult mice by the injection of lymphocytes from a histoincompatible mouse strain into the footpad . This response is characterized by T-cell proliferation which is limited to the popliteal lymph node that receives drainage from the injected footpad area. No in vitro system can completely duplicate this in vivo response. Thus, this animal model can be used to assess the ability of a test compound to suppress transplant rejection. Description of Assay Protocol: Experiments are conducted using male or female mice (20-26 grams). Any histoincompatible mouse strains suffice for donor and recipient populations. Typically DBA mice are used as donors and […] mice are used as recipients. A minimum of 1 week stabilization and conditioning period is required before use during which time the animals are maintained in accordance with the Animal Resource Center S.O.P. Each study utilizes 36 recipient mice divided into groups of 6. The tests last approximately four days. Donor mice are sacrificed by CO2 asphyxiation and spleens are removed and made into a cell suspension. The cells (1.0·10^7/metatarsal in 0.05 mL) are injected intra dermal (according to standard protocol) into the dorsal metatarsal skin of recipient mice. Four days later, the animals are sacrificed by CO2 asphyxiation and the popliteal nodes are removed and weighed. Groups of mice receiving putative immunosuppressive agents are dosed subcutaneously, intraperitoneally or orally one hour prior to cell injection and daily thereafter according to standard protocol. Student's T-test was used to determine significant differences between popliteal lymph nodes of groups of untreated mice and those mice treated with putative immunosuppressive agents (see: Kroczek, R. A.; Black, C. D. V.; Barbet, […]. Immunology, 1987, 139, 3597). Data are reported as the dose at which 50% inhibition is observed and the manner in which the compound was administered. In Table 23, the following legends are applicable: ^and=not determined. ^bpercent inhibition at 160 μg/mL. ^cno inhibition observed up to highest dose. Exact quantification not always possible due to intrinsic toxicity of compound (see MTT result). ^[…] inhibition (concentration in μM ). ^eapproximated from incomplete dose-response curve. ^fnot determined; compound is a synthesis intermediate.

The structures appear in SMILES notation.

For the molecule `C[C@]1(Cc2ccc(Br)cc2)NC(=O)N(c2cc(Cl)cc(Cl)c2)C1=O` [Example 29], the IC50 (usually the midpoint of a concentration-inhibition curve) worked out at 8 µM in assay [1] and 100 nM in assay [2]. For the same molecule, in assay [3], the ED50 (usually the midpoint of the dose-response relation) was about 60 mg/kg.
Turning to `CC(=O)N1C(=O)N(c2cc(Cl)cc(Cl)c2)C(=O)[C@@]1(C)Cc1ccc(Br)cc1` [Example 102], the IC50 is 25 to 50 µM in assay [1] and 1300 nM in assay [2]. For the same molecule, the ED50 in assay [3] is about 25 mg/kg.
